Data on two compounds can be found in patent publication US5721247A, “Isothiourea derivatives useful in therapy” (priority 1994, dated 1998).

Molecules are shown by their SMILES.

Assay [1] has as its target T1, neuronal nitric oxide synthase (Rattus norvegicus, UniProt P29476).
T1 construct: Enzyme was isolated from rat hippocampus or cerebellum; from tissue; host or cells: cerebellum or hippocampus of male Sprague-Dawley rat (20,000 g supernatant)
Put plainly: Screen for neuronal nitric oxide synthase inhibiting activity (Screen A). It is filed as biochemical.
Description: (A) Screen for neuronal nitric oxide synthase inhibiting activity
Enzyme was isolated from rat hippocampus or cerebellum. The cerebellum or hippocampus of a male Sprague-Dawley rat (250-275 g) is removed following CO2 anaesthesia of the animal and decapitation. Cerebellar or hippocampal supernatant is prepared by homogenisation in 50 mM Tris-HCl with 1 mM EDTA buffer (pH 7.2 at 25° C.) and centifugation for 15 minutes at 20,000 g. Residual L-arginine is removed from the supernatant by chromatography through Dowex AG-50W-X8 sodium form and hydrogen form columns successively, and further centrifugation at 1000 g for 30 seconds.
For the assay, 25 μl of the final supernatant is added to each of 12 test tubes containing 25 μl L-arginine solution (of concentration 18 μM ^1 H-L-arginine, 96 nM ^3 H-L-arginine) and either 25 μl of an assay buffer (50 mM HEPES, 1 mM EDTA, 1.5 mM CaCl2, pH 7.4) or 25 μl of test compound in the buffer at 22° C. […]
(§1) Labelled L-citrulline is separated from labelled L-arginine by chromatography over a Dowex AG-50W-X8 200-400 mesh column. […] The L-citrulline is then quantified by scintillation counting. […]

Assay [2] has as its target T2, endothelial nitric oxide synthase (Homo sapiens, UniProt P29474).
T2 construct: Enzyme may be isolated from human umbilical vein endothelial cells (HUVECs); host or cells: HUVEC (CHAPS-solubilised particulate fraction)
Put plainly: Screen for endothelial nitric oxide synthase inhibiting activity (Screen C). The assay is classed as biochemical.
Description: (C) Screen for endothelial nitric oxide synthase inhibiting activity
HUVECs were purchased from Clonetics Corp (San Diego, Calif., USA) and cultured to confluency. Cells can be maintained to passage 35-40 without significant loss of yield of nitric oxide synthase. When cells reach confluency, they are resuspended in Dulbecco's phosphate buffered saline, centrifuged at 800 rpm for 10 mins, the cell pellet homogenised in ice-cold 50 mM Tris-HCl, 1 mM EDTA, 10% glycerol, 1 mM phenylmethylsulphonylfluoride, 2 μM leupeptin at pH 4.2. Following centrifugation at 34,000 rpm for 60 mins, the pellet is solubilised in the homogenisation buffer which also contains 20 mM CHAPS. After a 30 min incubation on ice, the suspension is centrifuged at 34,000 rpm for 30 mins. The resulting supernatant is stored at -80° C. until use.
For the assay, 25 μl of the final supernatant is added to each of 12 test tubes containing 25 μl L-arginine solution (of concentration 12 μM ^1 H-L-arginine, 64 nM ^3 H-L-arginine) and either 25 μl of an assay buffer (50 mM HEPES, 1 mM EDTA, 1.5 mM CaCl2, pH 7.4) or 25 μl of test compound in the buffer at 22° C. […]
as §1

The target of assay [3] is T3, macrophage nitric oxide synthase (Mus musculus, UniProt P29477).
T3 construct: Nitric oxide synthase is produced by cells in response to interferon-γ (IFNγ) and lipopolysaccharide (LPS); endogenous in cells; host or cells: J774A-1 murine macrophage cell line, induced with LPS and IFN-gamma (cell lysate)
Put plainly: Screen for macrophage nitric oxide synthase inhibiting activity (Screen B). The assay is classed as biochemical, murine. The note with it: ratio of IC50 in Screen B (macrophage isoform) to IC50 in Screen A (neuronal isoform). The text has this:
The enzyme nitric oxide synthase has a number of isoforms and compounds of formula I, and pharmaceutically acceptable salts thereof, may be screened for nitric oxide synthase inhibiting activity by procedures based on those of Bredt and Snyder in Proc. Natl. Acad. Sci. (1990) 87, 682-685 and Forstermann et. al., Eur. J. Pharm. (1992) 225, 161-165 as follows. Nitric oxide synthase converts ^3 H-L-arginine to ^3 H-L-citrulline which can be separated by cation exchange chromatography and quantified by scintillation counting.
(B) Screen for macrophage nitric oxide synthase inhibiting activity
Enzyme is prepared, after induction, from the cultured murine macrophage cell line J774A-1 (obtained from laboratories of the Imperial Cancer Research Fund). J774A-1 cells are cultured in Dulbecco's Modified Eagles Medium (DMEM) supplemented with 10% foetal bovine serum, 4 mM L-glutamine and antibiotics (100 units/ml penicillin G, 100 μg/ml streptomycin & 0.25 μg/ml amphotericin B). Cells are routinely grown in […] flasks containing 35 ml medium kept at 37° C. and in a humidified atmosphere containing 5% CO2.
Nitric oxide synthase is produced by cells in response to interferon-γ (IFNγ) and lipopolysaccharide (LPS). […]
Labelled L-citrulline is separated from labelled L-arginine using Dowex AG-50W. […] After allowing the samples to dry the L-citrulline is quantified by scintillation counting. […]

T1 sequence (P29476 whole entry): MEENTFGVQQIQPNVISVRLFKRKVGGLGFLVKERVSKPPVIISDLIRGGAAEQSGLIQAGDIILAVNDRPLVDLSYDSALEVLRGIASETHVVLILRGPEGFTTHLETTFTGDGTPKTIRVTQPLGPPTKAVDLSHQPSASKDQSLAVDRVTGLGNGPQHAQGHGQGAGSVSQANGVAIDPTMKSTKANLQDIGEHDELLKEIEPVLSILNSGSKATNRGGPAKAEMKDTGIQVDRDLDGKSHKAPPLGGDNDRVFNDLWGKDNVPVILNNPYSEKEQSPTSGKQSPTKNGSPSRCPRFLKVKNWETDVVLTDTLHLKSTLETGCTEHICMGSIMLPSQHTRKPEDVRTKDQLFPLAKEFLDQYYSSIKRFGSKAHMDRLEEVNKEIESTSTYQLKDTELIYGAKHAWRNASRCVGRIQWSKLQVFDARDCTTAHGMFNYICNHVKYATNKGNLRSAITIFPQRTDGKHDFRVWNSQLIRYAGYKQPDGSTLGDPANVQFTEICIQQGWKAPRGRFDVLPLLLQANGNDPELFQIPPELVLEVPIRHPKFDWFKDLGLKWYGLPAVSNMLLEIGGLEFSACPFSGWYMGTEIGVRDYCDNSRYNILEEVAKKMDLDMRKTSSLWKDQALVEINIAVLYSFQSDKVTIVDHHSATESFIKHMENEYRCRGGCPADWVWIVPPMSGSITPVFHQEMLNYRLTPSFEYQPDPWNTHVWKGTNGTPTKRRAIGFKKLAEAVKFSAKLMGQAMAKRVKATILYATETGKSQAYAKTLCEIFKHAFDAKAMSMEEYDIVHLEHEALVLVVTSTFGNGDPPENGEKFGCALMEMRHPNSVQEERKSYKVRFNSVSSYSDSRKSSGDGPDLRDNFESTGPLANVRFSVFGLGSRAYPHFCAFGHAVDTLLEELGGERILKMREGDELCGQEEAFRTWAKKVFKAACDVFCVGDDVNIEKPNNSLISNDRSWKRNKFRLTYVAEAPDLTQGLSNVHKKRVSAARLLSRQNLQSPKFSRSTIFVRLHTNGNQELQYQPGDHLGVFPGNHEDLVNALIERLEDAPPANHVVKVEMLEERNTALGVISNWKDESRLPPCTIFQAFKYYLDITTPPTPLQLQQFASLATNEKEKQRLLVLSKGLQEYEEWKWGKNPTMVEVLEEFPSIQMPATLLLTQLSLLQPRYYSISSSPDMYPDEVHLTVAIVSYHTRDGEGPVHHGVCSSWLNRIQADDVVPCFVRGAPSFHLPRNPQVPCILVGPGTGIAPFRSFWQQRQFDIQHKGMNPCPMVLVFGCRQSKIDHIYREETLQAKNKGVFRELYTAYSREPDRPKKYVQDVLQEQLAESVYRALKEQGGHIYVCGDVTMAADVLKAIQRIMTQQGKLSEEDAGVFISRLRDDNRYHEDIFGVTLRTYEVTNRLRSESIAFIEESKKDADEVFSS
T2 sequence (P29474 2-1203): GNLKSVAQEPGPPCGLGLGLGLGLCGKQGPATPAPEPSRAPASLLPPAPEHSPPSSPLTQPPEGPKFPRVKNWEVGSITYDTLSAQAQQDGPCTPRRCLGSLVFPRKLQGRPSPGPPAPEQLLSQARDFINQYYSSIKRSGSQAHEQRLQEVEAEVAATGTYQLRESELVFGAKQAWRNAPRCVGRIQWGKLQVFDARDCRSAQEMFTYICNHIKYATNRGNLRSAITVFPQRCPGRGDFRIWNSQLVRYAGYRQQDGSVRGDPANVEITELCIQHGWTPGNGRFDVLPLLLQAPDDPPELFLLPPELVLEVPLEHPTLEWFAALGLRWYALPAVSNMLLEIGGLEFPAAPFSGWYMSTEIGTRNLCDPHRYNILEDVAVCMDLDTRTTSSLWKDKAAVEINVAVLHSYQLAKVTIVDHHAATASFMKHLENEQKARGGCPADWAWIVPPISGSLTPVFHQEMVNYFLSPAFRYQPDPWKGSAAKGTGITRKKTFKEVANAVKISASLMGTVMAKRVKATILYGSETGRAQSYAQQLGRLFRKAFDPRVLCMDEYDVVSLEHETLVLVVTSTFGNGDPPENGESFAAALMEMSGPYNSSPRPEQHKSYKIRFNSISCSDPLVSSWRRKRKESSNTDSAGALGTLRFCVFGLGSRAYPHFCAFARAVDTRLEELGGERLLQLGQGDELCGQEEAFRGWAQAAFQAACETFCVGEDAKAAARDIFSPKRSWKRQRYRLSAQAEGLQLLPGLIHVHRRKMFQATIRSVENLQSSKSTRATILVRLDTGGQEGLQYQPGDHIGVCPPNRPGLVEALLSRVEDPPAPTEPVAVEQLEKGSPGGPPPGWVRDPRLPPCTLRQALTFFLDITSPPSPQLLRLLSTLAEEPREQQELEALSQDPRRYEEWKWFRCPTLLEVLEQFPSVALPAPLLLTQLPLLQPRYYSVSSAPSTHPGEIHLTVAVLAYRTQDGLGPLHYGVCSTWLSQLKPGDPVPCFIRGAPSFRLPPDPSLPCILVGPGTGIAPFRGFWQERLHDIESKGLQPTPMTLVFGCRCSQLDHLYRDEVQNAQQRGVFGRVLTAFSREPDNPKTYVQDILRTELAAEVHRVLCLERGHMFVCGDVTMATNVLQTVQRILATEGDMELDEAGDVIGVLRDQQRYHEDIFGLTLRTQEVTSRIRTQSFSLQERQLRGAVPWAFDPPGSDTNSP

As for `N=C(NCCC[C@H](N)C(=O)O)N[N+](=O)[O-]` [N-nitro-L-arginine, reference compound], the inhibition – broadly, the change of the read-out against control, counted positive when it falls – at 1 µM in assay [1] (reference standard at a concentration of 1 μM) was 60%; in assay [2] (reference standard at a concentration of 1 μM, HUVEC enzyme) it was 70 to 90%.

In the case of `CCSC(=N)Nc1ccc(CCN(C)Cc2ccccc2)cc1` [Example 1, N-(4-(2-((Phenylmethyl)(methyl)amino)ethyl)phenyl)carbamimidothioic acid ethyl ester], the concentration for half-maximal inhibition (IC50) (commonly the concentration that inhibits the measured activity by half) in assay [1] (Screen A, neuronal isoform, rat hippocampus or cerebellum supernatant) was less than 10 µM. In addition, the “IC50 values more than 10 times that obtained in Screen A” value in assay [3] and in assay [2] (ratio of IC50 in Screen C (endothelial isoform) to IC50 in Screen A (neuronal isoform)) was “more than 10 times” in each case.
